Publication PMC10451668, “Natural Acetogenins, Chatenaytrienins-1, -2, -3 and -4, Mitochondrial Potential Uncouplers and Autophagy Inducers—Promising Anticancer Agents” (Antioxidants, 2023)

What was measured:
Assay type in all cases: cell-based, human
[1] = Cytotoxicity assay (7-AAD viability, flow cytometry); settings: human; Hek293, conditionally normal line; ± standard error of the mean, 95% CI in parenthesis
Source text: (§1) Cells, including Jurkat E6.1 (human leukemic T cell lymphoblasts, catalogue no. 88042803), K562 (human chronic myelogenous leukemia cells, catalogue no. 89121407), U937 (human histiocytic lymphoma cells, catalogue no. 85011440), HL60 (human promyelocytic leukemia cells, catalog no. 98070106), HEK293 (human embryonic kidney cells with adenovirus, catalog no. 85120602), and human lung fibroblasts Ce (catalogue no. 90011883), were purchased from the European Collection of Authenticated Cell Cultures (UK Health Security Agency) and cultured according to standard protocols using sterile techniques. […] Cells were maintained in RPMI 1640 (Jurkat, K562, U937, and HL60) and DME M (fibroblast and HEK293) (Gibco) supplemented with […] glutamine, 10% FBS (Sigma), and 100 units/mL penicillin-streptomycin (Sigma). All types of cells were grown under an atmosphere of 5% CO2 at 37 °C. The cells were subcultured at 2–3-day intervals. Cells were then seeded in 24-well plates at 5 × 10^4 cells per well and incubated overnight. Jurkat, K562, U937, HL60, HEK293, and fibroblast cells were subcultured at 2-day intervals with a seeding density of 1 × 10^5 cells per well in 24-well plates in RPMI with 10% FBS.
(§2) Viability (live/dead) assessment was performed by staining cells with 7-AAD (7-aminoactinomycin D; Biolegend). After treatment, cells were harvested, washed 1–2 times with phosphate-buffered saline (PBS), and centrifuged at 400× g for 5 min. Cell pellets were resuspended in 200 µL of flow cytometry staining buffer (PBS without Ca^2+ and Mg^2+, 2.5% FBS) and stained with […] of 7-AAD staining solution for 15 min at room temperature in the dark. Samples were assessed using the NovoCyte Penteon Flow Cytometer System (Agilent, 5301 Stevens Creek Blvd., Santa Clara, CA, USA). Detection of 7-AAD emission was collected through a 675/30 nm filter in the FL4 channel.

HL60 = experiment: as above; settings: Homo sapiens, HL-60, ± standard error of the mean, 95% CI in parenthesis
Source text: as §1, §2

Jurkat = experiment: as above; settings: Homo sapiens, ± standard error of the mean, 95% CI in parenthesis
Source text: as §1, §2

K562 = experiment: as above; settings: Homo sapiens, ± standard error of the mean, 95% CI in parenthesis
Source text: as §1, §2

U937 = experiment: as above; settings: Homo sapiens, U-937, ± standard error of the mean, 95% CI in parenthesis
Source text: as §1, §2

[2] = as above; settings: human; normal fibroblasts; ± standard error of the mean, 95% CI in parenthesis
Jurkat cells [3] = experiment: Detection of mitodamage: mitochondrial membrane potential and apoptosis (MitoSense Red, annexin V, 7-AAD); settings: compound at CC50, 4 h
Source text: The use of reagents MitoSense Red, annexin V, and 7-AAD in the Millipore FlowCellect™ MitoDamage Kit allowed us to gain information on early, mid, and late apoptosis with one simple assay. […] After this time, the cells were dissociated using an accutase solution, stained, and analyzed using the NovoCyte Penteon Flow Cytometer System (Agilent, 5301 Stevens Creek Blvd., Santa Clara, CA, USA), according to the manufacturer’s protocols for the FlowCellect™ MitoDamage Kit and FlowCellect™ Oxidative Stress Characterization Kit (Merck).
Detection of mitochondrial potential dissipation using MitoSense Red, annexin V, and 7-AAD provided a simultaneous measurement of three important parameters of the cell state within the same cell sample: the state of the mitochondrial potential (Δψ), detected by the membrane-penetrating MitoSense Red dye; the expression of phosphatidylserine on the cell surface of apoptotic cells, assessed by the binding of annexin V to externalized phosphatidylserine; and the binding of 7-AAD to DNA in cells in the late stages of apoptosis. Multiparametric evaluation of these indicators of cell viability made it possible to determine the correlation and relationship between oxidation dissipation and phosphorylation with apoptosis.

Jurkat tumor cell line = experiment: Assessment of cytochrome c loss (FlowCellect Cytochrome c Kit); settings: compound at CC50, incubation 3 h, anti-cytochrome c-FITC
Method: Quantification of cytochrome c release from mitochondria in apoptotic cells was presented to detect the mitochondrial pathway of apoptosis in cells using flow cytometry with the FlowCellect™ Cytochrome c Kit (FCCH100110). For this, cells were treated with FITC-conjugated antibodies against cytochrome c and control anti-IgG1-FITC, together with the use of an optimized fixation procedure, permeabilization, and blocking buffer (Luminex®, USA). […] Jurkat cells were incubated for 4 h with the synthesized substances at a concentration corresponding to their 24-h CC50 in a culture plate and assessed using the NovoCyte Penteon Flow Cytometer System (Agilent, 5301 Stevens Creek Blvd., Santa Clara, CA, USA). The obtained data were processed using NovoExpress® software (ACEA).

Jurkat cells [4] = experiment: Oxidative stress and early apoptosis (MitoSOX Red and annexin V, MitoStress Kit); settings: compound at CC50, 4 h, MitoSOX Red and annexin V
Source text: Changes in the mitochondrial membrane potential (ΔΨ) in Jurkat cells induced by treatment with the synthesized compounds were detected using MitoSOX Red, a positively charged probe that accumulates rapidly in mitochondria and as such can be used to detect superoxide/ROS production within mitochondria using fluorometry, microscopy, or flow cytometry. Live cells induced a low level of MitoSOX Red fluorescence, while cells with scattered mitochondrial membrane potential caused much higher MitoSOX Red fluorescence. Annexin V is a dye commonly used to detect early signs of apoptosis. […] Thus, using two different dyes, MitoSOX Red and annexin V (CF488A), in the FlowCellect™ MitoStress Kit (FCCH100109), we analyzed the mitochondrial membrane potential dissipation and associated apoptosis in Jurkat cells in response to the synthesized chatenaytrienins.
Therefore, simultaneous detection of mitochondrial superoxide generation (detected by MitoSOX Red membrane-penetrating dye) and expression of phosphatidylserine on the cell surface of apoptotic cells (assessed by binding of annexin V) in the same cell sample provides an accurate evaluation of the ability of the test compound to initiate oxidative stress in cell culture and induce apoptosis.

Jurkat cells [5] = experiment: Assessment of autophagy (anti-LC3/FITC, flow cytometry); settings: 0.5 CC50, 48 h
Source text: Autophagy is involved in various physiological processes and its changes are associated with the pathogenesis of diseases such as neurodegenerative diseases, cardiovascular complications, cancer, and infectious diseases, as well as with physiological processes such as innate and specific immunity, pathogen clearance, lymphocyte selection, antigen presentation, and production of immunoglobulins. Therefore, the determination of LC3 protein inside autophagosomes without the cytosolic form of LC3-I at the stage of selective cell permeability was measured using flow cytometry. Thus, using the FlowCellect™ LC3-GFP Reporter Autophagy Assay Kit (FCCH100170 and FCCH100181), flow cytometry allowed for a rapid assay that could be combined with other phenotypic and functional markers to characterize different cell populations.
Canonical autophagy is associated with the conversion of LC3 protein (an autophagosome marker) from the cytoplasmic form of LC3I to the lipid-bound form of LC3II, which is associated with the membranes of maturing autophagosomes. The autophagy process can be conveniently classified into several stages. First, induction and translocation of the cytoplasmic LC3 protein occur due to the influence of external stimuli (adverse environmental influences)—the process is initiated by external/internal stimuli (for example, nutrient depletion or hypoxia). Then, the formation of autophagosomes begins, which are double-membrane vesicles that include the LC3 protein. This protein regulates the fusion of autophagosomes and lysosomes. It exists in two fractions—cytoplasmic LC3-I and LC3-II, isolated in the autophagosomal membrane. The LC3-II protein fraction was specified in our work, as its detection is a reliable indicator of the processes of autophagy in the cell.

Jurkat cells [6] = experiment: Cell cycle analysis (propidium iodide, Guava Cell Cycle Reagent); settings: compound at CC50, 48 h, control did not exceed 34.2%
Method: The cell cycle was analyzed by propidium iodide staining (Guava® Cell Cycle Reagent 4500-0220). […] The cell pellet was resuspended in 200 μL of flow cytometry staining buffer (PBS without Ca^2+ and Mg^2+, 2.5% FBS). Cells were then seeded in 24-well plates at a density of 15 × 10^5 cells per well, centrifuged at 450× g for 5 min, then fixed with ice-cold 70% ethanol for 24 h at 0 °C. Before staining with propidium iodide, cells were washed with PBS and incubated with 250 µL of cell cycle detection reagent (Millipore) for 40 min at 22 °C in the dark. Samples were analyzed using the NovoCyte Penteon Flow Cytometer System (Agilent, 5301 Stevens Creek Blvd., Santa Clara, CA, USA).

CCCCCCCCCCCC/C=C\CC/C=C\CC/C=C\CCCCCCCCC1=C[C@H](C)OC1=O [compound 2, chatenaytrienin-2] showed a CC50 [1] of 630 ± 30 nM, a CC50 (HL60) of 130 ± 20 nM and a CC50 (Jurkat) of 120 ± 60 nM. The CC50 (K562) was 180 ± 50 nM, the CC50 (U937) was 120 ± 10 nM and the CC50 [2] was 790 ± 20 nM. The “cells in late apoptosis (stained with 7-AAD)” value (Jurkat cells [3]; Jurkat) was 8.44%, the “Jurkat tumor cells with the Δψ dissipation phenomenon” value (Jurkat cells [3]; MitoSense Red) was 67.76% and the “cells with cytochrome c released into the cytoplasm (Negative gate)” value (Jurkat tumor cell line) was 33.51%. For the same compound, the “cells demonstrating oxidative stress along with the marker of early apoptosis, annexin” value (Jurkat cells [4]) was 11.86%, the “cells with autophagy (gate M3-2)” value (Jurkat cells [5]) was 79.96% and the “percentage of cells in the S-phase” value (Jurkat cells [6]) was ~ 47%.
